Results as given in PMC4884932, “Selective brain penetrable Nurr1 transactivator for treating Parkinson's disease” (Oncotarget, 2016).

Key:
[1] = target: T1, farnesoid X receptor (FXR) (Homo sapiens, UniProt Q96RI1); test: Receptor transactivation assay, FXR (CV-1 cells, FXR and RXRα vectors); type: cell-based; conditions: at physiological concentrations
T1 sequence (Q96RI1 1-486): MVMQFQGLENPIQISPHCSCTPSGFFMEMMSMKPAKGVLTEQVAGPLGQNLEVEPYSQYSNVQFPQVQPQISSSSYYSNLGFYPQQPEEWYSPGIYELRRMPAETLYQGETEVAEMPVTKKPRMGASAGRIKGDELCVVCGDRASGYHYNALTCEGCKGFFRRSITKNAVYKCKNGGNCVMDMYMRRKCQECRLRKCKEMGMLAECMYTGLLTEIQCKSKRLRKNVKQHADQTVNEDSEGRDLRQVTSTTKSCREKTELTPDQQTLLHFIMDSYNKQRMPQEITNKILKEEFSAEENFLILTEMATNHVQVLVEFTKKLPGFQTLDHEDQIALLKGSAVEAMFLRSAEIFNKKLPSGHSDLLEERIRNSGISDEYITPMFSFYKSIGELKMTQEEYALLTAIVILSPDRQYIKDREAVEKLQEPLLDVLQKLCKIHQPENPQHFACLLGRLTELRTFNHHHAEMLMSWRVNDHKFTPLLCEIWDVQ
T1 sequence (P19793 1-462 partner): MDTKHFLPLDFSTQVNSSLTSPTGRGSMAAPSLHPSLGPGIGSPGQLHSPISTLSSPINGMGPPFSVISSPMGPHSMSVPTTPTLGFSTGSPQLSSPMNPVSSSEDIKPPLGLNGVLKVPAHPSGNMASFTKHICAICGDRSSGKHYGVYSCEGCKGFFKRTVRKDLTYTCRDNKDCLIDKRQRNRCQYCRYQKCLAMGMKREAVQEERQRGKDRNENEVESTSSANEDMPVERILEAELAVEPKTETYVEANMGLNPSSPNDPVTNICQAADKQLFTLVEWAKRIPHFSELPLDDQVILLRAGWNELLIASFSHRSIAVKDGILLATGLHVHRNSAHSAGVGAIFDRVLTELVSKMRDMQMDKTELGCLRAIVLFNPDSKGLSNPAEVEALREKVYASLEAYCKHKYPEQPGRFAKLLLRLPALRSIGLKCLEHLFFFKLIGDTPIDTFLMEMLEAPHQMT
Excerpt: For RXR: CV-1 cells were transfected with rCRBPII/RXRE-tk-Luc reporter gene and an expression vector for RXRα, β, or γ. For RAR: CV-1 cells were transfected with ERE-tk-Luc reporter gene and an expression vector for the appropriate ER-RARα, β, or γ. ER-RARs are fusion proteins, composed of the estrogen receptor (ER) DNA binding domain fused to the ligand binding domain of RARs. This system eliminates interference by the low level of endogenous RAR activity in CV1 cells as the readout comes only from the transfected ER-RAR. For PPARγ: CV-1 cells were transfected with 3x(rAOX/DR1)-tk-Luc reporter gene and an expression vector for PPARγ; for FXR: CV-1 cells were transfected with 3x(IBABP/IR1)-tk-Luc reporter gene and vectors for FXR and RXRα; for LXR: CV-1 cells were transfected with 3x(PLTP/LXRE)-tk-Luc reporter gene with vectors for LXRα or LXRβ. For Nurr1: COS7 cells were transfected with 3xNBRE-tk-luc reporter gene and full length Nurr1 with or without full-length RXRα plasmid. […] Luciferase data were normalized to co-transfected β-gal activity. Luciferase activity is expressed as percent of maximal activity obtained using specific agonists 9-cis-retinoic acid (RXR), retinoic acid (RAR), rosiglitazone (PPARγ), GW4064 (FXR), T0901317 (LXR).

LXRβ = LXRβ (Homo sapiens, UniProt P55055); test: Receptor transactivation assay, LXRβ (CV-1 cells); type: cell-based; conditions: at physiological concentrations
LXRβ, sequence (P55055 whole entry, one chain of several): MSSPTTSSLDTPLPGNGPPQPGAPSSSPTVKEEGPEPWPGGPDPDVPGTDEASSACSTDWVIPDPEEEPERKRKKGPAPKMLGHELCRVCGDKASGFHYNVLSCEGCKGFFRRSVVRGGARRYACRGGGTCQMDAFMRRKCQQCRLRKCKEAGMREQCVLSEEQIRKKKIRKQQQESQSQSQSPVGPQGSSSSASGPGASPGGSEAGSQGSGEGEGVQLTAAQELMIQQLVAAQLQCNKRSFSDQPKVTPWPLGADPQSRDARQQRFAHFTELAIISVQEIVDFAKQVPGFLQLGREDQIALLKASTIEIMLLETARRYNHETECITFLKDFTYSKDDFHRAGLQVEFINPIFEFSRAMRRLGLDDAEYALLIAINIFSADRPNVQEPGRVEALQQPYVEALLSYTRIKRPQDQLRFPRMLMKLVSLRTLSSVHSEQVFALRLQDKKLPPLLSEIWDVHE
Excerpt: For PPARγ: CV-1 cells were transfected with 3x(rAOX/DR1)-tk-Luc reporter gene and an expression vector for PPARγ; for FXR: CV-1 cells were transfected with 3x(IBABP/IR1)-tk-Luc reporter gene and vectors for FXR and RXRα; for LXR: CV-1 cells were transfected with 3x(PLTP/LXRE)-tk-Luc reporter gene with vectors for LXRα or LXRβ. […] Luciferase data were normalized to co-transfected β-gal activity. Luciferase activity is expressed as percent of maximal activity obtained using specific agonists 9-cis-retinoic acid (RXR), retinoic acid (RAR), rosiglitazone (PPARγ), GW4064 (FXR), T0901317 (LXR).

6-OHDA lesioned rats = test: Cylinder test in 6-OHDA lesioned rat model of PD; type: in vivo; conditions: 10mg/kg/day gavage for three weeks, day 17 and day 24 post-lesion, p < 0.05
Method: All surgical procedures were performed under general anesthesia with ketamine/xylazine. 2μl 6-OHDA (20 mg/ml in 0.02% ascorbic acid) was stereotaxically injected into the right striatum of male SD rats. Lesion coordinates were set according to bregma and dura in mm: ML-3.7; AP-1.0; DV-5.5. The injection rate was 2μl/5 min and the injecting needle was left for 2 minutes after injection to avoid back flow. Apomorphine-induced rotations (see below) were assessed three days post-lesion and rats with ≥ 30 full contralateral rotation/30 minutes were included in the study.
Rats were randomly grouped into vehicle control group (n = 11) and drug treatment group (n = 10). […] The control group received DMSO/corn oil (vehicle). The treatment continued for three weeks.
The cylinder test was used to test for forelimb use asymmetry. Rats to be tested were placed individually in a glass cylinder (21 cm diameter, 34 cm height) and wall exploration was recorded for five minutes. Wall exploration was expressed in terms of the percentage of impaired (right) forelimb vs. total (right+left+both) usage. Paw placement test was performed before the lesion for baseline, three days post lesion and two weeks and three weeks following treatment.

activation of RXR heterodimer of FXR [1]: does not activate
activation of RXR heterodimer of LXRβ (LXRβ): does not activate
Compound: CC(/C=C/[C@@H]1C[C@]1(C)c1ccc2c(c1)C(C)(C)CCC2(C)C)=C\C(=O)O [IRX4204]
spontaneous forelimb use in the cylinder test (6-OHDA lesioned rats): significantly improved spontaneous forelimb use to pre-lesion levels
